In PubChem BioAssay AID2060351 (Molecular Pharmacology Branch, DTP, NCI, 2025):
Where “and” joins values, the source holds several entries; their conditions need not be identical. Equal values may be shown once. One block for each molecule: values may come before it.

Test system: 521955-158-R7-J2-PDC spheroids, viability % test/control
Test: Anticancer human tumor 521955-158-R7-J2-PDC patient-derived pancreatic carcinoma cell line growth inhibition [TAK]
Details: spheroids with HUVEC and MSC; for viability, T/C: stronger effect = lower value
Source text: Combinatorial screen of targeted agents with TAK-243 and ipatasertib in multi-cell type tumor spheroids
A high-throughput screen of multi-cell type tumor spheroids was designed to identify active combinations of targeted small molecules and TAK-243 or ipatasertib. Complex spheroids include a stromal component modeled by human endothelial cells (HUVEC) and fibroblasts modeled by human mesenchymal stem cells (MSCs). The concentration ranges selected for each drug and investigational agent were based upon clinically achievable concentrations if the clinical Cmax of the agent was known.
Compounds. The drugs and investigational agents: TAK-243 (785004), ipatasertib (767898), everolimus (733504), selumetinib (741078), bortezomib (756655), trametinib (758246), ixazomib (758254), vemurafenib (761431), dabrafenib (764134), sapanisertib (764658), alpelisib (765974), and copanlisib (816437), were obtained from the National Cancer Institute (NCI) Developmental Therapeutics Program Chemical Repository. The FDA-approved anticancer drug set is available from the NCI Developmental Therapeutics Program. […] The stock solutions were prepared in dimethyl sulfoxide (DMSO, Sigma-Aldrich, St. Louis, MO, cat. D2650) at 800-fold the tested concentration and stored at -70 degrees C prior to their use. All drugs and investigational agents were tested over a range starting from a high concentration at or near the clinical Cmax and decreasing in half-log increments. If the clinical Cmax for an agent had not been determined, the highest concentration tested was 10 microM.
NCI60 Cell Culture. NCI60 cell lines were obtained from the NCI Developmental Therapeutics Program Tumor Repository. For each lot of cells, the Repository performed Applied Biosystems AmpFLSTR Identifiler testing with PCR amplification to confirm consistency with the published Identifier STR profile for each cell line. Cells were kept in continuous culture for no more than 20 passages. The optimal seeding densities for each of the cell lines at each time point assessed were determined prior to performing the concentration response studies. Briefly, the NCI60 human tumor lines were grown as monolayers in RPMI 1640 medium supplemented with 10% FBS and 2 mmol/L L-glutamine.
An additional 2 lines were from the NCI60 cell line panel including melanomas, MALME-3M and SK-MEL-2. Pooled donor human umbilical vein endothelial cells (HUVEC, Lonza, cat. CC-2519) and human mesenchymal stem cells (hMSC, Lonza, cat. PT-2501) were purchased from Lonza (Walkersville, MD).
PDMR cell lines were grown in complete medium (DC medium): Dulbecco's modified Eagle's medium (DMEM)/F12 supplemented with 5% fetal bovine serum (FBS), 2 mM L-glutamine, 100 U/mL penicillin and 100 µg/ml streptomycin, 0.4 µg/ml hydrocortisone, 10 ng/ml epidermal growth factor (EGF) recombinant human protein, 24 µg/mL adenine, and 0.1 mg/mL primocin. During culture from frozen stock vials, PDMR cells were cultured in the same medium containing 10 µM Y-27632 (see Table 3). The PDCs were cultured in complete DMEM/F12 media without 10 microM Y-27632 dihydrochloride for at least two passages prior to the screen. The pooled donor HUVEC and hMSC were cultured in endothelial cell growth medium 2 (PromoCell, Heidelberg, Germany, cat. C-22011) and mesenchymal stem cell growth medium 2 (PromoCell, cat. C-28009), respectively. For all experiments, HUVEC and hMSC were used at passages </=5.
For the pre-screen, cell seeding densities were determined from a titration spanning the range from 5,000 to 313 cells per well. The mct-spheroids including 60% malignant cells, 25% HUVEC and 15% MSC dispensed as a mixture into U-bottom Ultra-Low Attachment 384-well plates (Corning, NY)
High-throughput Drug Combination Screening.
Prior to their inoculation into 384-well plates, malignant cells, HUVEC, and hMSC were removed from T flasks using TrypLE express (Thermo Fisher Scientific, cat. 12605036) and harvested by centrifugation for 5 min at 233 x g. […]
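Note: spheroids exposed to compound for 7 days before readout.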

IC50 (curve of compound): > 100 nM
Structure (SMILES): CC(C)n1nc(-c2ccc3oc(N)nc3c2)c2c(N)ncnc21
viability, T/C (compound 0.000316 µM): 78.4% and 94.7%
viability, T/C (compound 0.001 µM): 79.4% and 104%
viability, T/C (compound 0.00316 µM): 81.2% and 82.3%
viability, T/C (compound 0.01 µM): 86.4% and 90.7%
viability, T/C (compound 0.0316 µM): 76% and 109%
viability, T/C (compound 0.1 µM): 71.2% and 53.7%

IC50 (curve of compound): 4560 nM and 3720 nM
Structure (SMILES): Cc1nc(NC(=O)N2CCCC2C(N)=O)sc1-c1ccnc(C(C)(C)C(F)(F)F)c1 (centres undefined)
viability, T/C (compound 0.0316 µM): 83.2% and 92.5%
viability, T/C (compound 0.1 µM): 64.2% and 84.5%
viability, T/C (compound 0.316 µM): 59.4% and 74%
viability, T/C (compound 1 µM): 70.8% and 73.5%
viability, T/C (compound 3.16 µM): 58.1% and 52.5%
viability, T/C (compound 10 µM): 34.1% and 30.3%

Structure (SMILES): COC1CC2CCC(C)C(O)(O2)C(=O)C(=O)N2CCCCC2C(=O)OC(C(C)CC2CCC(OCCO)C(OC)C2)CC(=O)C(C)C=C(C)C(O)C(OC)C(=O)C(C)CC(C)C=CC=CC=C1C (centres undefined) + CC(C)NCC(C(=O)N1CCN(c2ncnc3c2C(C)CC3O)CC1)c1ccc(Cl)cc1
IC50 (curve of first compound, second compound 0.3 µM): > 100 nM
IC50 (curve of first compound, second compound 0.949 µM): > 100 nM
IC50 (curve of first compound, second compound 3 µM): > 100 nM
IC50 (curve of first compound, second compound 9.49 µM): > 100 nM
IC50 (curve of first compound, second compound 30 µM): > 100 nM
viability, T/C (second compound 0.3 µM, first compound 0.000316 µM): 103%
viability, T/C (second compound 0.3 µM, first compound 0.001 µM): 72.1%
viability, T/C (second compound 0.3 µM, first compound 0.00316 µM): 71.6%
viability, T/C (second compound 0.3 µM, first compound 0.01 µM): 102%
viability, T/C (second compound 0.3 µM, first compound 0.0316 µM): 110%
viability, T/C (second compound 0.3 µM, first compound 0.1 µM): 115%
viability, T/C (second compound 0.949 µM, first compound 0.000316 µM): 81.6%
viability, T/C (second compound 0.949 µM, first compound 0.001 µM): 73.5%
viability, T/C (second compound 0.949 µM, first compound 0.00316 µM): 100%
viability, T/C (second compound 0.949 µM, first compound 0.01 µM): 91%
viability, T/C (second compound 0.949 µM, first compound 0.0316 µM): 111%
viability, T/C (second compound 0.949 µM, first compound 0.1 µM): 85.9%
viability, T/C (second compound 3 µM, first compound 0.000316 µM): 84.7%
viability, T/C (second compound 3 µM, first compound 0.001 µM): 89.1%
viability, T/C (second compound 3 µM, first compound 0.00316 µM): 74.7%
viability, T/C (second compound 3 µM, first compound 0.01 µM): 89.5%
viability, T/C (second compound 3 µM, first compound 0.0316 µM): 104%
viability, T/C (second compound 3 µM, first compound 0.1 µM): 93.7%
viability, T/C (second compound 9.49 µM, first compound 0.000316 µM): 86.2%
viability, T/C (second compound 9.49 µM, first compound 0.001 µM): 86.3%
viability, T/C (second compound 9.49 µM, first compound 0.00316 µM): 82.2%
viability, T/C (second compound 9.49 µM, first compound 0.01 µM): 85.8%
viability, T/C (second compound 9.49 µM, first compound 0.0316 µM): 106%
viability, T/C (second compound 9.49 µM, first compound 0.1 µM): 105%
viability, T/C (second compound 30 µM, first compound 0.000316 µM): 90.3%
viability, T/C (second compound 30 µM, first compound 0.001 µM): 108%
viability, T/C (second compound 30 µM, first compound 0.00316 µM): 98.2%
viability, T/C (second compound 30 µM, first compound 0.01 µM): 106%
viability, T/C (second compound 30 µM, first compound 0.0316 µM): 104%
viability, T/C (second compound 30 µM, first compound 0.1 µM): 116%
